Test results: US9204649B2 (priority 2011, dated 2015)

What was measured:
[1] = log P (pH 2.7) given with the preparation examples; assay type: physicochemical; settings: for logP: pH 2.7, pH 2.7
Phytophthora infestans = assay type: in vivo; settings: tomato young plants, protective spray, active ingredient concentration 10 ppm, evaluation 3 days after inoculation; 0% = control, 100% = no infection

Structure (SMILES) | log P (pH 2.7) ([1]; pH 2.7) | logP [1] | Eff (efficacy) (Phytophthora infestans) | chromatographic logP (physchem; pH 2.3) | chromatographic logP (physchem; pH 7.8) | logP ([1]; reversed-phase HPLC column (C18))
CC(C)(C)OC(=O)N1CCC(c2nc(C=NO)cs2)CC1 [A, tert-Butyl 4-{4-[(hydroxyimino)methyl]-1,3-thiazol-2-yl}piperidine-1-carboxylate] | 2.38 | 2.25 | – | – | – | –
CCOC(=O)C1CC(c2csc(C3CCN(C(=O)OC(C)(C)C)CC3)n2)=NO1 (stereo not drawn) [B, tert-Butyl 4-{4-[5-(ethoxycarbonyl)-4,5-dihydro-1,2-oxazol-3-yl]-1,3-thiazol-2-yl}piperidine-1-carboxylate] | – | 3.14 | – | – | – | –
O=C(O)C1CC(c2csc(C3CCN(C(=O)Cn4nc(C(F)F)cc4C(F)F)CC3)n2)=NO1 (stereo not drawn) [D, 3-[2-(1-{[3,5-Bis(difluoromethyl)-1H-pyrazol-1-yl]acetyl}piperidin-4-yl)-1,3-thiazol-4-yl]-4,5-dihydro-1,2-oxazole-5-carboxylic acid] | – | 1.77 | – | – | – | –
COC(=O)C1CC(c2csc(C3CCN(C(=O)Cn4nc(C(F)F)cc4C(F)F)CC3)n2)=NO1 (stereo not drawn) [Example I-1, methyl 3-[2-(1-{[3,5-bis(difluoromethyl)-1H-pyrazol-1-yl]acetyl}piperidin-4-yl)-1,3-thiazol-4-yl]-4,5-dihydro-1,2-oxazole-5-carboxylate] | – | 2.26 | 75% | 2.28 | 2.28 | –
O=C(OC1CCCCC1Cl)C1CC(c2csc(C3CCN(C(=O)Cn4nc(C(F)F)cc4C(F)F)CC3)n2)=NO1 (stereo not drawn) [Example I-5, 2-Chlorocyclohexyl 3-[2-(1-{[3,5-bis(difluoromethyl)-1H-pyrazol-1-yl]acetyl}piperidin-4-yl)-1,3-thiazol-4-yl]-4,5-dihydro-1,2-oxazole-5-carboxylate] | – | – | 93% | 3.42 | 3.5 | 3.43
